Assay results taken from patent US20240207265A1, “TREATMENT OF CNS DISEASES WITH sGC STIMULATORS” (Tisento Therapeutics Inc., priority 2021, published 2024).

What follows are molecules tested against T1, human α2β1 sGC isozyme (Homo sapiens, UniProt P33402+Q02153) (assay: cGMP assay in CHO-K1 cells stably expressing human α2β1 sGC isozyme). Details: 10 μM DETA-NONOate.
T1 construct: host or cells: CHO-K1
T1 sequence (P33402 1-732): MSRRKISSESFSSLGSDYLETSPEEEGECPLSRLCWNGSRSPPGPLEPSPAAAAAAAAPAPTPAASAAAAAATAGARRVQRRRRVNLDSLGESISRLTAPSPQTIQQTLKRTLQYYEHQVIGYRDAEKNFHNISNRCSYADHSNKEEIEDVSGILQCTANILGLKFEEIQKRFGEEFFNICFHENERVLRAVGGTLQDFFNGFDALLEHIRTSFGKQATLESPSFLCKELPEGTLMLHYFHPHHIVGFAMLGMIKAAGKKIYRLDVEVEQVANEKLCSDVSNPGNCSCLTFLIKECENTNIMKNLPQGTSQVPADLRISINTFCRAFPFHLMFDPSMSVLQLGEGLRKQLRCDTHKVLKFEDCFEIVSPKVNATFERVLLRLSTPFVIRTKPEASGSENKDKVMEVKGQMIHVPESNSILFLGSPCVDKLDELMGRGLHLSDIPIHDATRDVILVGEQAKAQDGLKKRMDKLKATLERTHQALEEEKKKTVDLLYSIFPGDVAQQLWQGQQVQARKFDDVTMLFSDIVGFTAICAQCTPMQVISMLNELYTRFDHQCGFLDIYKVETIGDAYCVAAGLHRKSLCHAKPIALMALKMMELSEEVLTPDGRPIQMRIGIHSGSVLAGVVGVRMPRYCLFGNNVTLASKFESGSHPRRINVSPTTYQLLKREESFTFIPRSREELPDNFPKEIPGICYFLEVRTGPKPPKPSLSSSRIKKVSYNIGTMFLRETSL
T1 sequence (Q02153 1-619): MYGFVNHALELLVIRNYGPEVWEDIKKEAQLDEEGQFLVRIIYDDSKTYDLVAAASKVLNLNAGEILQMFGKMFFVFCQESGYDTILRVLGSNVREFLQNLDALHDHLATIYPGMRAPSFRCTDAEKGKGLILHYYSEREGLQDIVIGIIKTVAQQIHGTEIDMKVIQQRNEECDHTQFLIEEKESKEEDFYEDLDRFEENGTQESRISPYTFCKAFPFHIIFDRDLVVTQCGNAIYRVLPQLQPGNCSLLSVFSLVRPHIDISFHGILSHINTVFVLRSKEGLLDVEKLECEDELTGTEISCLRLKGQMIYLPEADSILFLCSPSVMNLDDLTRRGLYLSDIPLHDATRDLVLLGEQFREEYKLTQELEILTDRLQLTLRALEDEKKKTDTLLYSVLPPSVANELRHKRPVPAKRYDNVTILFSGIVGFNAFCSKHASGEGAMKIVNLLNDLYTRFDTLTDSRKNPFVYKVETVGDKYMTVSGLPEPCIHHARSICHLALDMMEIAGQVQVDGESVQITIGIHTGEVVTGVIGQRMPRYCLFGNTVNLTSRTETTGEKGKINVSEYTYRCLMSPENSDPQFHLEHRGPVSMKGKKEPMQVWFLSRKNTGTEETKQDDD
Assay type: cell-based
Experimental: sGC stimulators were dissolved in DMSO as a 10 mM solution and stored at −20° C. To achieve desired test concentrations, stock concentrations were serially diluted into DMSO and then diluted to the appropriate concentration in assay buffer.
CHO-K1 cells stably transfected with human α2β1 sGC isozyme (generated by GenScript for Ironwood) were cultured in F-12K medium (ATCC catalog #30-2004) with 10% fetal calf serum, 4 μg/mL puromycin (Gibco catalog #A11138-03) and 0.4 mg/mL of geneticin (Gibco catalog #10131-027) in a 95% humidified atmosphere containing 5% CO2 in air at 37° C. For GC activity assays, cells were seeded in 384 well poly-D-lysine coated flat bottom plates (Fisher Scientific #08-774-311) in either 50 μL or 70 μL medium at a density of either 3×10^4 cells/well or 15×10^3, respectively. Cells were incubated for 24 hours at 37° C. in a humidified chamber supplemented with 5% CO2.
For each test concentration, the compound was diluted in 100% DMSO to 100-fold of its final assay concentration. Immediately prior to the assay, the solution was diluted 20-fold into HBSS containing calcium, magnesium, and 50 μM DETA-NONOate (5× the final assay concentration). Medium was removed and cells were washed once with 40 μL of HBSS. Cells were then incubated with 40 μL of a solution containing 0.5 mM IBMX in HBSS for 15 min at 37° C. 10 μL from the sGC stimulator/HBSS/DETA-NONOate plate was added to the cells, which were incubated for an additional 20 min at 37° C. Final DMSO concentration was 1%, final DETA-NONOate concentration was 10 μM; and final compound concentrations were 30,000 nM, 6000 nM, 1200 nM, 240 nM, 48 nM, 9.6 nM, 1.92 nM, 0.384 nM, 0.077 nM, 0.015 nM, or 0.003 nM.
Following incubation with compound, assay buffer was removed and 50 μL of ice-cold 10% acetic acid+150 ng/mL internal standard (+3 cGMP) was added to each well. Samples were incubated on ice for 30-60 min. Following centrifugation at 4° C. for 5 min at 1000×g to pellet cell debris, the supernatant was transferred to a clean plate and the samples analyzed for cGMP content.
Data were analyzed with a 4-parameter fit (log(agonist) vs. response-variable slope) using GraphPad Prism Software v.8. The EC50 was interpolated from the curve fit and is defined as the concentration at which the compound elicits 50% of its maximal response. When the experiment was carried out multiple times for a given compound, the geometrical mean of all experiments is reported.

Row | SMILES | EC50 [nM]
1 | Oc1nc(-c2cn3ccnc3c(Cc3ccccc3)n2)ncc1F [Compound I-2, 2-(8-Benzylimidazo[1,2-a]pyrazin-6-yl)-5-fluoropyrimidin-4-ol] | 100 to 1000
2 | Oc1nc(-c2cn3ncnc3c(Cc3ccccc3F)n2)ncc1F [Compound I-23] | 100 to 1000
3 | Cc1cc(F)c(Cc2nc(-c3nccc(O)n3)cn3ccnc23)cc1F [Compound I-15, 2-(8-(2,5-difluoro-4-methylbenzyl)imidazo[1,2-a]pyrazin-6-yl)pyrimidin-4-ol] | 100 to 1000
4 | Oc1nc(-c2cn3ccnc3c(Cc3cc(F)ccc3F)n2)ncc1Cl [Compound I-16, 5-chloro-2-(8-(2,5-difluorobenzyl)imidazo[1,2-a]pyrazin-6-yl)pyrimidin-4-ol] | ≤ 100
5 | Oc1nc(-c2cn3ccnc3c(Cc3cc(F)ccc3F)n2)ncc1F [Compound I-20, 5-fluoro-2-(8-(2,5-difluorobenzyl)imidazo[1,2-a]pyrazin-6-yl)pyrimidin-4-ol] | ≤ 100

Continued, values first:

Row | EC50 [nM] | SMILES
6 | ≤ 100 | Oc1nc(-c2cn3ccnc3c(Cc3cccc(F)c3F)n2)ncc1F [Compound I-4, 2-(8-(2,3-Difluorobenzyl)imidazo[1,2-a]pyrazin-6-yl)-5-fluoropyrimidin-4-ol]
7 | ≤ 100 | Oc1nc(-c2cn3c(F)cnc3c(Cc3cc(F)ccc3F)n2)ncc1F [Compound I-5]
8 | ≤ 100 | Cc1cc(F)c(Cc2nc(-c3ncc(F)c(O)n3)cn3c(F)cnc23)cc1F [Compound I-18]
9 | ≤ 100 | Cc1cc(F)c(Cc2nc(-c3ncc(F)c(O)n3)cn3ncnc23)cc1F [Compound I-19, 5-Fluoro-2-(8-(2,5-difluoro-4-methylbenzyl)-[1,2,4]triazolo[1,5-a]pyrazin-6-yl)pyrimidin-4-ol]
10 | ≤ 100 | Oc1nc(-c2cn3ccnc3c(Cc3ccccc3F)n2)ncc1F [Compound I-21]
